US20240239792A1, “MODULATORS OF BCL-2 OR BCL-2/BCL-XL AND USES THEREOF” (APPICINE THERAPEUTICS (HK) LIMITED, priority 2021, published 2024)

Assays:
BCL-XL = target: T1, BCL-XL (Homo sapiens, UniProt Q07817); experiment: HTRF BCL-XL/BAK assay (Cisbio); format: binding; settings: recombinant human Tag1-BCL-XL 2 nM, Tag2-BAK 5 nM
T1 construct: purchased Cisbio 63ADK000CB04PEG
Procedure: (§1) Then the pre-mixed anti-Tag1-Eu^3+ and anti-tag2-XL665 were added to the plate and further incubated at room temperature for another 2 hours. The signals ([…]) were read on Envision 2104 instrument. The IC50 for each compound was derived from fitting the signal of 665/615 nM to the increasing compound concentration.
(§2) Using the above assays, the following compounds were tested.

BCL-2 = target: T2, BCL-2 (Homo sapiens, UniProt P10415); experiment: HTRF BCL-2/BAK assay (Cisbio); format: binding; settings: recombinant human Tag1-BCL-2 2 nM, Tag2-BAK 10 nM
T2 construct: purchased Cisbio 63ADK000CB01PEG
Procedure: as §1, §2

DOHH2 cells = experiment: CellTiter-Glo cell proliferation assay, DOHH2 cells; format: cell-based; settings: Homo sapiens, DOHH-2, 72 hours
How it was run: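 GI50 derived from CellTiter-Glo luminescent viability signal. Cells grown in DMEM with 10% FBS received a compound dilution series for 72 h (37 °C, 5% CO2).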

T1 sequence (Q07817 whole entry): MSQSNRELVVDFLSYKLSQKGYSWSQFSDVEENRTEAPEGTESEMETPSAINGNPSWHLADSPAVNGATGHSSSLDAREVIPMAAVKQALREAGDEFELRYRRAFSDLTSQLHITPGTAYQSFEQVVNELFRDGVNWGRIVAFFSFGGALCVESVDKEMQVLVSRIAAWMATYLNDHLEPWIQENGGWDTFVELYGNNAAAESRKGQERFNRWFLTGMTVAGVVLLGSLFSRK
T2 sequence (P10415 whole entry): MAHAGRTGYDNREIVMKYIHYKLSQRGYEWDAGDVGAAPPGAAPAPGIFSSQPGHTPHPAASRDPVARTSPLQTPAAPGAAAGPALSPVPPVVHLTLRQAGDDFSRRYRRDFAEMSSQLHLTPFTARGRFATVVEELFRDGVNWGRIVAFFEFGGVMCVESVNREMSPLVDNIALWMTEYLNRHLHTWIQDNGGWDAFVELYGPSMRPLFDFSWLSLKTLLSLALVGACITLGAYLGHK

Compound | IC50 (BCL-XL) [nM] | IC50 (BCL-2) [nM] | GI50 (DOHH2 cells) [nM]
CC(C)[C@H](N)C(=O)N1CCC2(CC1)CC(CNc1ccc(S(=O)(=O)NC(=O)c3ccc(N4CCN([C@@H]5CCCCc6c(Cl)cccc65)CC4)cc3Oc3cnc4[nH]ccc4c3)cc1[N+](=O)[O-])C2 [Compound 125, 2-((1H-pyrrolo[2,3-b]pyridin-5-yl)oxy)-N-((4-(((7-(L-valyl)-7-azaspiro[3.5]nonan-2-yl)methyl)amino)-3-nitrophenyl)sulfonyl)-4-(4-((R)-1-chloro-6,7,8,9-tetrahydro-5H-benzo[7]annulen-5-yl)piperazin-1-yl)benzamide] | < 20 | < 20 | < 50
O=C(NS(=O)(=O)c1ccc(NCC2CCC3(CC2)COC3)c([N+](=O)[O-])c1)c1ccc(N2CCN([C@@H]3CCCCc4c(Br)cc(F)cc43)CC2)cc1Oc1cnc2[nH]ccc2c1 [Compound 79, (R)-2-((1H-pyrrolo[2,3-b]pyridin-5-yl)oxy)-N-((4-(((2-oxaspiro[3.5]nonan-7-yl)methyl)amino)-3-nitrophenyl)sulfonyl)-4-(4-(1-bromo-3-fluoro-6,7,8,9-tetrahydro-5H-benzo[7]annulen-5-yl)piperazin-1-yl)benzamide] | 200 to 2000 | < 20 | 50 to 500
O=C(NS(=O)(=O)c1ccc(NCCN2CCC3(CC2)COC3)c([N+](=O)[O-])c1)c1ccc(N2CCN([C@@H]3CCCCc4c(Br)cccc43)CC2)cc1Oc1cnc2[nH]ccc2c1 [Compound 68, (R)-2-((1H-pyrrolo[2,3-b]pyridin-5-yl)oxy)-N-((4-((2-(2-oxa-7-azaspiro[3.5]nonan-7-yl)ethyl)amino)-3-nitrophenyl)sulfonyl)-4-(4-(1-bromo-6,7,8,9-tetrahydro-5H-benzo[7]annulen-5-yl)piperazin-1-yl)benzamide] | < 20 | < 20 | < 50
O=C(NS(=O)(=O)c1ccc(NCC2CCN(C3COC3)CC2)c([N+](=O)[O-])c1)c1ccc(N2CCN([C@@H]3CCCCc4c(Cl)cccc43)CC2)cc1Oc1cnc2[nH]ccc2c1 [Compound 83, (R)-2-((1H-pyrrolo[2,3-b]pyridin-5-yl)oxy)-4-(4-(1-chloro-6,7,8,9-tetrahydro-5H-benzo[7]annulen-5-yl)piperazin-1-yl)-N-((3-nitro-4-(((1-(oxetan-3-yl)piperidin-4-yl)methyl)amino)phenyl)sulfonyl)benzamide] | < 20 | < 20 | < 50
CN1CC2CC1CC2CNc1ccc(S(=O)(=O)NC(=O)c2ccc(N3CCN(C4CCCCc5c(Cl)cccc54)CC3)cc2Oc2cnc3[nH]ccc3c2)cc1[N+](=O)[O-] (stereo not drawn) [Compound 44, 2-((1H-pyrrolo[2,3-b]pyridin-5-yl)oxy)-4-(4-(1-chloro-6,7,8,9-tetrahydro-5H-benzo[7]annulen-5-yl)piperazin-1-yl)-N-((4-(((2-methyl-2-azabicyclo[2.2.1]heptan-5-yl)methyl)amino)-3-nitrophenyl)sulfonyl)benzamide] | < 20 | < 20 | 50 to 500
Cc1ccc(S(=O)(=O)N2CCc3ccccc3C(N3CCN(c4ccc(C(=O)NS(=O)(=O)c5ccc(NCC6CCOCC6)c([N+](=O)[O-])c5)c(Oc5cnc6[nH]ccc6c5)c4)CC3)C2)cc1 (stereo not drawn) [Compound 35, 2-((1H-pyrrolo[2,3-b]pyridin-5-yl)oxy)-N-((3-nitro-4-(((tetrahydro-2H-pyran-4-yl)methyl)amino)phenyl)sulfonyl)-4-(4-(3-tosyl-2,3,4,5-tetrahydro-1H-benzo[d]azepin-1-yl)piperazin-1-yl)benzamide] | 200 to 2000 | 20 to 200 | 500 to 5000
CC(=O)N1CCN(CCNc2ccc(S(=O)(=O)NC(=O)c3ccc(N4CCN([C@@H]5CCCCc6c(Br)cccc65)CC4)cc3Oc3cnc4[nH]ccc4c3)cc2[N+](=O)[O-])CC1 [Compound 65, (R)-2-((1H-pyrrolo[2,3-b]pyridin-5-yl)oxy)-N-((4-((2-(4-acetylpiperazin-1-yl)ethyl)amino)-3-nitrophenyl)sulfonyl)-4-(4-(1-bromo-6,7,8,9-tetrahydro-5H-benzo[7]annulen-5-yl)piperazin-1-yl)benzamide] | < 20 | < 20 | < 50

Continued, in another order:

IC50 (BCL-XL) [nM] | IC50 (BCL-2) [nM] | Compound | GI50 (DOHH2 cells) [nM]
20 to 200 | < 20 | O=C(NS(=O)(=O)c1ccc(NCC2CCC3(CC2)COC3)c([N+](=O)[O-])c1)c1ccc(N2CCN([C@@H]3CCCCc4c(Br)cccc43)CC2)cc1Oc1cnc2[nH]ccc2c1 [Compound 67, (R)-2-((1H-pyrrolo[2,3-b]pyridin-5-yl)oxy)-N-((4-(((2-oxaspiro[3.5]nonan-7-yl)methyl)amino)-3-nitrophenyl)sulfonyl)-4-(4-(1-bromo-6,7,8,9-tetrahydro-5H-benzo[7]annulen-5-yl)piperazin-1-yl)benzamide] | < 50
20 to 200 | < 20 | O=C(NS(=O)(=O)c1ccc(NCC2CC3(CCOCC3)C2)c([N+](=O)[O-])c1)c1ccc(N2CCN([C@@H]3CCCCc4c(Cl)cccc43)CC2)cc1Oc1cnc2[nH]ccc2c1 [Compound 99, (R)-2-((1H-pyrrolo[2,3-b]pyridin-5-yl)oxy)-N-((4-(((7-oxaspiro[3.5]nonan-2-yl)methyl)amino)-3-nitrophenyl)sulfonyl)-4-(4-(1-chloro-6,7,8,9-tetrahydro-5H-benzo[7]annulen-5-yl)piperazin-1-yl)benzamide] | < 50
200 to 2000 | < 20 | C=C(C)c1cccc2c1CCCCC2N1CCN(c2ccc(C(=O)NS(=O)(=O)c3ccc(NCC4CCOCC4)c([N+](=O)[O-])c3)c(Oc3cnc4[nH]ccc4c3)c2)CC1 (stereo not drawn) [Compound 50, 2-((1H-pyrrolo[2,3-b]pyridin-5-yl)oxy)-N-((3-nitro-4-(((tetrahydro-2H-pyran-4-yl)methyl)amino)phenyl)sulfonyl)-4-(4-(1-(prop-1-en-2-yl)-6,7,8,9-tetrahydro-5H-benzo[7]annulen-5-yl)piperazin-1-yl)benzamide] | 50 to 500
> 2000 | < 20 | O=C(NS(=O)(=O)c1ccc(NCC2CCOCC2)c([N+](=O)[O-])c1)c1ccc(N2CCN(C3CCCCc4c(-c5ccn[nH]5)cccc43)CC2)cc1Oc1cnc2[nH]ccc2c1 (stereo not drawn) [Compound 54, 4-(4-(1-(1H-pyrazol-3-yl)-6,7,8,9-tetrahydro-5H-benzo[7]annulen-5-yl)piperazin-1-yl)-2-((1H-pyrrolo[2,3-b]pyridin-5-yl)oxy)-N-((3-nitro-4-(((tetrahydro-2H-pyran-4-yl)methyl)amino)phenyl)sulfonyl)benzamide] | 500 to 5000
20 to 200 | < 20 | O=C(NS(=O)(=O)c1ccc(NCC2CCOCC2)c([N+](=O)[O-])c1)c1ccc(N2CCN([C@@H]3CCCCc4c3cccc4[N+](=O)[O-])CC2)cc1Oc1cnc2[nH]ccc2c1 [Compound 73, (R)-2-((1H-pyrrolo[2,3-b]pyridin-5-yl)oxy)-N-((3-nitro-4-(((tetrahydro-2H-pyran-4-yl)methyl)amino)phenyl)sulfonyl)-4-(4-(1-nitro-6,7,8,9-tetrahydro-5H-benzo[7]annulen-5-yl)piperazin-1-yl)benzamide] | 50 to 500
20 to 200 | < 20 | O=C(NS(=O)(=O)c1ccc(NCC2CCC3(CC2)COC3)c([N+](=O)[O-])c1)c1ccc(N2CCN([C@@H]3CCCCc4c3cccc4[N+](=O)[O-])CC2)cc1Oc1cnc2[nH]ccc2c1 [Compound 74, (R)-2-((1H-pyrrolo[2,3-b]pyridin-5-yl)oxy)-N-((4-(((2-oxaspiro[3.5]nonan-7-yl)methyl)amino)-3-nitrophenyl)sulfonyl)-4-(4-(1-nitro-6,7,8,9-tetrahydro-5H-benzo[7]annulen-5-yl)piperazin-1-yl)benzamide] | < 50
200 to 2000 | < 20 | O=C(NS(=O)(=O)c1ccc(NCC2CCOCC2)c([N+](=O)[O-])c1)c1ccc(N2CCN(C3CCCc4cccc(-c5ccc(Cl)cc5)c43)CC2)cc1Oc1cnc2[nH]ccc2c1 (stereo not drawn) [Compound 16, 2-((1H-pyrrolo[2,3-b]pyridin-5-yl)oxy)-4-(4-(8-(4-chlorophenyl)-1,2,3,4-tetrahydronaphthalen-1-yl)piperazin-1-yl)-N-((3-nitro-4-(((tetrahydro-2H-pyran-4-yl)methyl)amino)phenyl)sulfonyl)benzamide] | 500 to 5000
> 2000 | < 20 | O=C(NS(=O)(=O)c1ccc(NCC2CCOCC2)c([N+](=O)[O-])c1)c1ccc(N2CCN(C3CCCCc4c(-c5ccccc5)cccc43)CC2)cc1Oc1cnc2[nH]ccc2c1 (stereo not drawn) [Compound 19, 2-((1H-pyrrolo[2,3-b]pyridin-5-yl)oxy)-N-((3-nitro-4-(((tetrahydro-2H-pyran-4-yl)methyl)amino)phenyl)sulfonyl)-4-(4-(1-phenyl-6,7,8,9-tetrahydro-5H-benzo[7]annulen-5-yl)piperazin-1-yl)benzamide] | 500 to 5000
> 2000 | < 20 | O=C(NS(=O)(=O)c1ccc(NCC2CCOCC2)c([N+](=O)[O-])c1)c1ccc(N2CCN(C3CCCCc4ccc(Cl)cc43)CC2)cc1Oc1cnc2[nH]ccc2c1 (stereo not drawn) [Compound 26, 2-((1H-pyrrolo[2,3-b]pyridin-5-yl)oxy)-4-(4-(3-chloro-6,7,8,9-tetrahydro-5H-benzo[7]annulen-5-yl)piperazin-1-yl)-N-((3-nitro-4-(((tetrahydro-2H-pyran-4-yl)methyl)amino)phenyl)sulfonyl)benzamide] | 50 to 500
